One data set has as its system mTORC1 at Ser2448. As to conditions: cited from earlier work.
The subject of another data set is ABCB1/ABCG2. As to conditions: cited from earlier work.
For data set [1] the following is noted: in vivo; cited from earlier work.
The subject of the next data set is CYP3A4. As to conditions: role: substrate; cited from earlier work.
The test system of a further data set is HSA. As to conditions: cited from earlier work.
Another data set relates to human plasma proteins. As to conditions: cited from earlier work.
A further data set has as its system p4EBP1. Briefly: Western blot analysis of p4EBP1 in MCF7 cells. The data set is classed as cell-based. The settings on record: single agent, FIG. 3. The method, then:
(§1) A series of single-agent treatments of fulvestrant or nab-sirolimus and combination treatments of both fulvestrant and nab-sirolimus were separately applied to aliquots of hormone receptor positive breast cancer cell lines (either MCF7 or MDA-MB-361). The series including varying concentration of nab-sirolimus (20 nM or 80 nM) and fulvestrant (0.98 nM to 1000 nM). Following the application of the individual treatments, the cell aliquots were incubated for 5 days. Subsequently, the antiproliferative and cytotoxic effects of single agent and combination treatments were assessed using an automated trypan blue exclusion assay.
Western blot analysis was performed to assess p4EBP1 in MCF7 cells. […] Thus, addition of nab-sirolimus to endocrine-based therapies, such as fulvestrant, may overcome mechanisms of resistance.
Background: In western blotting, separated proteins are transferred to a membrane and probed.

The test system of a further data set is pAKT. Briefly: Western blot analysis of pAKT in MCF7 cells. The class given is cell-based. As to conditions: fulvestrant combined with nab-sirolimus, FIG. 3, effect on nab-sirolimus-induced increase. The method, then: as §1
Western blot analysis was performed to assess pAKT in MCF7 cells. […] Thus, addition of fulvestrant, to mTOR targeting agents, such as nab-sirolimus may overcome mechanisms of resistance.

The values below come from US20260315437A1, “COMBINATION OF NAB-SIROLIMUS AND AN ESTROGEN SUPPRESOR FOR USE IN THE TREATMENT OF HORMONE-DEPENDENT CANCERS” (AADI Bioscience, Inc., priority 2023, published 2026).

SMILES strings stand for the structures.

For the compound `COc1ccc(-c2ccc3c(N4CCOCC4)nc(N4C[C@@H](C)O[C@@H](C)C4)nc3n2)cc1CO` [KU-0063794], the “inhibition of phosphorylation of mTORC1 at Ser2448” value in the data set on mTORC1 at Ser2448 was “inhibits the phosphorylation of mTORC1 at Ser2448 in a dose-dependent and time-dependent manner”. Turning to `COc1ccc(COc2cc3oc(=O)c4cc(C(C)O)ccc4c3cc2OC)cc1` (stereo not drawn) [Palomid 529], the “affinity for ABCB1/ABCG2” value in the data set with ABCB1/ABCG2 was “lacks affinity for ABCB1/ABCG2”. Further, the brain penetration entry in data set [1] is listed as “good brain penetration”. `CO[C@H]1C[C@@H]2CC[C@@H](C)[C@@](O)(O2)C(=O)C(=O)N2CCCC[C@H]2C(=O)O[C@H]([C@H](C)C[C@@H]2CC[C@@H](O)[C@H](OC)C2)CC(=O)[C@H](C)/C=C(\C)[C@@H](O)[C@@H](OC)C(=O)[C@H](C)C[C@H](C)/C=C/C=C/C=C/1C` [Sirolimus, sirolimus]: the metabolism entry with CYP3A4 is given as “metabolized primarily by CYP3A4”. Moreover, the “binding to HSA” value with HSA is “shown to bind HSA”. Consider `CC(=O)O[C@@]12CO[C@@H]1C[C@H](O)[C@@]1(C)C(=O)[C@H](O)C3=C(C)[C@@H](OC(=O)[C@H](O)[C@@H](NC(=O)OC(C)(C)C)c4ccccc4)C[C@@](O)([C@@H](OC(=O)c4ccccc4)[C@H]21)C3(C)C` [docetaxel], for which the “binding to human plasma proteins” value in the data set on human plasma proteins is recorded as “shown to bind to human plasma proteins”. As to `C[C@]12CC[C@@H]3c4ccc(O)cc4C[C@@H](CCCCCCCCC[S+]([O-])CCCC(F)(F)C(F)(F)F)[C@H]3[C@@H]1CC[C@@H]2O` (stereo partly drawn) [fulvestrant], the p4EBP1 level entry with p4EBP1 is “increased p4EBP1 in response to fulvestrant in a dose-dependent manner”. Moreover, the “pAKT level in combination” value in the data set with pAKT is recorded as “reversed by combination with fulvestrant in a dose-dependent manner”.

As to `CC(C)c1cccc(C(C)C)c1O` [propofol], the “binding to HSA” value with HSA is “shown to bind HSA”.
